The subject of the assay is alpha-MyHC. Nature of the assay: alpha-MyHC cytoblot in neonatal rat ventricular myocytes (NRVM). It counts as cell-based. Conditions: for Max Plateau: fitted maximum, percent fraction of low control (vehicle), in %; for EC50: concentration giving 50% of maximum response. The protocol:
In vitro activity of each compound is measured using the alpha-MyHC cytoblot process. Briefly, neonatal rat ventricular myocytes (NRVM) at 120,000 cells/ml in HyQ DME/High modified culture media supplemented with 10% charcoal/dextran treated FBS, 0.1% Nutridoma-SP, 1:100 MEM non-essential amino acids, 1:50 MEM amino acids solution w/o L-Gln, 1 mM sodium pyruvate and 1:100 P/S/G, are plated on gelatin coated sterile 384-well plates (Costar 3712) at 6,000 cells per well. Cells are incubated overnight at 37° C. in 5% CO2 100% humidity. Following overnight growth the media is changed to HyQ DME/High modified culture media supplemented with 0.3% Nutridoma-SP, 1:100 MEM non-essential amino acids, 1:50 MEM amino acids solution w/o L-Gln, 1 mM sodium pyruvate and 1:100 P/S/G. Cells are then dosed with serial dilutions of each compound in DMSO. Each concentration in the dose range is dosed in quadruplicate. Dosing is done in such a way so that the final DMSO concentration was 0.44%. Compound dilutions are 3-fold with the final top concentration of 10 uM. […] Following dosing, the cells are incubated for 72 hours at 37° C. in 5% CO2 100% humidity and then processed with the cytoblot method. Briefly, cell media is aspirated and cell monolayers washed with PBS and fixed with 100% methanol for 30 minutes. Fixed cells are then blocked with PBS, 0.05% Tween-20, 1% BSA, for 1 hour. Following blocking, cells are incubated with primary alpha-MyHC-specific antibody (1:30 dilution of BA-G5 hybridoma conditioned media, ATCC HB276) for 1 hour. Following incubation with the primary antibody, cells are washed with PBS, 0.05% Tween-20, 1% BSA and incubated with secondary antibody (1:1000 dilution, goat-anti-mouse HRP, Southern Biotech, 1031-05) for 1 hour. Following incubation with the secondary antibody, wells are washed and incubated in SuperSignal, West Dura HRP-luminescence substrate for 30 seconds under shaking at room temperature. Luminescence is measured using a Packard Fusion plate reader. […] RLU values are converted into percent fraction of low control and dose responses are fitted to a sigmoidal 4-parameter equation (XLFit, IDBS) where the EC50 and Max Plateau values were extracted. […] Max Plateau is the […] maximum value determined by the dose response fit.

For `CC(=O)C1=C(C)Nc2sc(C(=O)c3cccc(F)c3)c(N)c2C1c1ccccc1` (centres unmarked) [Compound 61], the “Max Plateau” value (Table 1, 72 hours) turned out to be 230.65 ± 55.61.
Take `CC(=O)C1=C(C)Nc2sc(C(=O)c3ccccc3Cl)c(N)c2C1c1ccccc1` (centres unmarked) [Compound 57]: under “Table 1, 72 hours”, the “Max Plateau” value worked out at 246.00 ± 16.33.
`CCC1=C(C(=O)OC)C(c2ccc(F)cc2F)c2c(sc(C(=O)c3ccc(Cl)c(Cl)c3)c2N)N1` (centres unmarked) [Compound 153]: the “Max Plateau” value (Table 2, 72 hours) is given as 234.66.
The same measure, in the same setting: with `CCC1=C(C(=O)OC)C(c2c(F)cccc2F)c2c(sc(C(=O)c3ccc(Cl)c(Cl)c3)c2N)N1` (centres unmarked) [Compound 137] the figure was 213.90.
Take `COC(=O)C1=C(C(C)C)Nc2sc(C(=O)c3ccc(Cl)c(Cl)c3)c(N)c2C1c1ccccc1` (centres unmarked) [Compound 116]: under “Table 2, 72 hours”, the “Max Plateau” value was found to be 107.57.
As for `CC(=O)C1=C(C)Nc2sc(C(=O)c3cccc(C(=O)O)c3)c(N)c2C1c1ccccc1` (centres unmarked) [Compound 65], the “Max Plateau” value (Table 1, 72 hours) is 100.00 ± 0.00.
As to `CCC1=C(C(=O)OC)C(c2cccc(Cl)c2F)c2c(sc(C(=O)c3ccc(Cl)c(Cl)c3)c2N)N1` (centres unmarked) [Compound 155], the “Max Plateau” value (Table 2, 72 hours) is recorded as 224.86.
As for `COC(=O)C1=C(CCc2ccccc2)Nc2sc(C(=O)c3ccc(Cl)c(Cl)c3)c(N)c2C1c1ccccc1F` (centres unmarked) [Compound 154], the “Max Plateau” value (Table 2, 72 hours) came out at 125.87.
Take `CCC(=O)C1=C(CC)Nc2sc(C(=O)c3ccc(Cl)c(Cl)c3)c(N)c2C1c1ccccc1Cl` (centres unmarked) [Compound 53]: the “Max Plateau” value (Table 1, 72 hours) is recorded as 259.43 ± 26.30.
For the compound `CC(=O)C1=C(C)Nc2sc(C(=O)c3ccc(Cl)c(Cl)c3)c(N)c2C1(C)c1cccc(F)c1` (centres unmarked) [Compound 207, 1-[3-amino-2-(3,4 dichloro-benzoyl)-4-(3 fluoro-phenyl)-4,6-dimethyl-4,7 dihydro-thieno[2,3-b]pyridin-5-yl]-ethanone], the EC50 (Rattus norvegicus, Ventricular myocyte, Table 4, 72 hours) is 3.34 µM.
`COC(=O)C1=C(C(C)C)Nc2sc(C(=O)c3cccc(C#N)c3)c(N)c2C1c1ccccc1F` (racemic) [Compound 177]: the “Max Plateau” value (Table 2, 72 hours) is on record as 162.75.
For the compound `CC(=O)C1=C(C)Nc2sc(C(=O)c3ccc(Cl)c(Cl)c3)c(N)c2C1c1ccc(C(F)(F)F)cc1` (centres unmarked) [Compound 48], the “Max Plateau” value (Table 1, 72 hours) came to 190.81 ± 37.09.
Same read-out and setting: with `CCC(=O)C1=C(CC)Nc2sc(C(=O)c3cccc(F)c3)c(N)c2C1c1ccccc1` (centres unmarked) [Compound 49] the figure was 299.18 ± 42.31.
For the compound `CCC(=O)C1=C(CC)Nc2sc(C(=O)c3ccc(Cl)c(Cl)c3)c(N)c2C1c1ccccc1F` (racemic) [Compound 39, 1-[3-amino-2-(3,4-dichloro-benzoyl)-6-ethyl-4-(2-fluoro-phenyl)-4,7-dihydro-thieno[2,3b]pyridin-5-yl]-propan-1-one], under “Table 1, 72 hours”, the midpoint of the response, the EC50, lay at 0.0171 µM and the “Max Plateau” value came out at 272.61 ± 37.32.
For `CCC(=O)C1=C(CC)Nc2sc(C(=O)c3cc(C(F)(F)F)cc(C(F)(F)F)c3)c(N)c2C1c1ccccc1` (centres unmarked) [Compound 73], the “Max Plateau” value (Table 1, 72 hours) turned out to be 205.27 ± 38.78.
For the compound `CCC(=O)C1=C(CC)Nc2sc(C(=O)c3cccc([N+](=O)[O-])c3)c(N)c2C1c1ccccc1` (centres unmarked) [Compound 96], the “Max Plateau” value (Table 1, 72 hours) is given as 254.87 ± 72.67.
On the same count and under the same terms, with `CC(=O)C1=C(C)Nc2sc(C(=O)c3ccccc3)c(N)c2C1C1CCCCC1` (centres unmarked) [Compound 26] the figure was 185.33 ± 55.04.
Take `CCOC(=O)C1=C(CC)Nc2sc(C(=O)c3ccc(F)c(F)c3)c(N)c2C1c1ccncc1F` (centres unmarked) [Compound 173]: where the note is “Table 2, 72 hours”, the “Max Plateau” value is 257.43.
Consider `CCC(=O)C1=C(CC)Nc2sc(C(=O)c3ccc(Cl)c(Cl)c3)c(N)c2C1c1ccc(O)cc1Cl` (centres unmarked) [Compound 83], for which, where the note is “Table 1, 72 hours”, the “Max Plateau” value came to 274.88 ± 44.56.
Still for that read-out and setting: with `CCC(=O)C1=C(CC)Nc2sc(C(=O)c3cc(C(C)(C)C)c(O)c(C(C)(C)C)c3)c(N)c2C1c1ccccc1` (centres unmarked) [Compound 90] the figure was 300.00 ± 0.00.
Still for that read-out and setting: with `CC(=O)C1=C(C)Nc2sc(C(=O)c3ccc(Cl)c(Cl)c3)c(N)c2C1c1ccc(O)cc1Cl` (centres unmarked) [Compound 29] the figure was 281.88 ± 32.78; with `CC(=O)C1=C(C)Nc2sc(C(=O)c3ccc(Cl)c(Cl)c3)c(N)c2C1c1ccc(O)cc1` (centres unmarked) [Compound 23], 277.53 ± 33.46.
Regarding `CC(=O)C1=C(C)Nc2sc(C(=O)c3ccccc3)c(N)c2C1c1ccc(C(F)(F)F)cc1` (centres unmarked) [Compound 44], under “Table 1, 72 hours”, the “Max Plateau” value is recorded as 186.67 ± 11.55.
Consider `CCC(=O)C1=C(CC)Nc2sc(C(=O)c3ccccc3)c(N)c2C1c1cc(F)cc(F)c1` (centres unmarked) [Compound 105], for which the “Max Plateau” value (Table 1, 72 hours) came to 273.18 ± 37.33.
For the compound `CCCC(=O)C1=C(CCC)Nc2sc(C(=O)c3cc(Cl)ccc3Cl)c(N)c2C1c1ccccc1` (centres unmarked) [Compound 94], the “Max Plateau” value (Table 1, 72 hours) is given as 153.83 ± 13.14.
As for `CC(=O)C1=C(C)Nc2sc(C(=O)c3cccc([N+](=O)[O-])c3)c(N)c2C1c1ccc(C(=O)O)cc1` (centres unmarked) [Compound 9], the “Max Plateau” value (Table 1, 72 hours) came to 100.00 ± 0.00.
`COc1ccccc1C1C(C(C)=O)=C(C)Nc2sc(C(=O)c3ccccc3)c(N)c21` (centres unmarked) [Compound 18]: for the setting “Table 1, 72 hours”, the “Max Plateau” value is reported as 215.25 ± 44.08.
Consider `CCC(=O)C1=C(CC)Nc2sc(C(=O)c3c(Cl)cccc3Cl)c(N)c2C1c1ccccc1F` (centres unmarked) [Compound 107], for which the “Max Plateau” value (Table 1, 72 hours) was determined as 273.85 ± 29.06.
For the compound `CCC(=O)C1=C(CC)Nc2sc(C(=O)c3ccc(Cl)cc3Cl)c(N)c2C1c1ccccc1` (centres unmarked) [Compound 70], the “Max Plateau” value (Table 1, 72 hours) is recorded as 191.97 ± 13.09.
Consider `CCC(=O)C1=C(CC)Nc2sc(C(=O)c3cccnc3)c(N)c2C1c1ccnc(F)c1` (centres unmarked) [Compound 103], for which the “Max Plateau” value (Table 1, 72 hours) is 254.65 ± 31.26.
In the case of `CC(=O)C1=C(C)Nc2sc(C(=O)c3ccc(C)c(C)c3)c(N)c2C1c1ccccc1` (centres unmarked) [Compound 8], under “Table 1, 72 hours”, the “Max Plateau” value is on record as 172.29 ± 9.66.
For `CCOC(=O)C1=C(CC)Nc2sc(C(=O)c3ccc(Cl)cc3Cl)c(N)c2C1c1ccccc1` (centres unmarked) [Compound 145], the “Max Plateau” value (Table 2, 72 hours) is recorded as 224.48.
Take `COC(=O)C1=C(C2CC2)Nc2sc(C(=O)c3ccc(Cl)c(Cl)c3)c(N)c2C1c1ccccc1` (centres unmarked) [Compound 133]: the “Max Plateau” value (Table 2, 72 hours) was found to be 180.24.
Take `CCCCNC(=O)C1=C(C)Nc2sc(C(=O)c3ccc(Cl)c(Cl)c3)c(N)c2C1c1ccccc1` (racemic) [Compound 196]: under “Table 3, 72 hours”, the “Max Plateau” value stood at 121.93 ± 25.12.
Regarding `CCC(=O)C1=C(CC)Nc2sc(C(=O)c3cc(Cl)ccc3Cl)c(N)c2C1c1ccccc1` (centres unmarked) [Compound 64], the “Max Plateau” value (Table 1, 72 hours) amounted to 281.39 ± 54.54.
For `CC(C)C(=O)C1=C(C(C)C)Nc2sc(C(=O)c3ccc(Cl)c(Cl)c3)c(N)c2C1c1ccccc1` (centres unmarked) [Compound 46], the “Max Plateau” value (Table 1, 72 hours) is 98.33 ± 4.08.
`CCC1=C(C(=O)OC(C)CC)C(c2ccccc2F)c2c(sc(C(=O)c3ccc(Cl)c(Cl)c3)c2N)N1` (single isomer, unassigned) [Compound 163]: for the setting “Table 2, 72 hours”, the “Max Plateau” value was 224.85.
Take `CCCC(=O)C1=C(CCC)Nc2sc(C(=O)c3ccc(Cl)c(Cl)c3)c(N)c2C1c1ccccc1` (centres unmarked) [Compound 86]: the “Max Plateau” value (Table 1, 72 hours) was found to be 131.26 ± 2.34.
On to `COC(=O)C1=C(C2CC2)Nc2sc(C(=O)c3cccc(Cl)c3)c(N)c2C1c1ccnc(F)c1` (racemic) [Compound 176], for which the “Max Plateau” value (Table 2, 72 hours) was 218.25.
On the same count and under the same terms, with `CCC1=C(C(=O)OC)C(c2ccccc2)c2c(sc(C(=O)c3cccc(C#N)c3)c2N)N1` (centres unmarked) [Compound 143] the figure was 290.53.
Regarding `CCC(=O)C1=C(CC)Nc2sc(C(=O)c3ccc(Cl)c(Cl)c3)c(N)c2C1c1c(F)cccc1F` (centres unmarked) [Compound 63], the “Max Plateau” value (Table 1, 72 hours) worked out at 230.07 ± 45.59.
For `CCC1=C(C(=O)OC)C(c2ccccc2F)c2c(sc(C(=O)c3cccc([N+](=O)[O-])c3)c2N)N1` (centres unmarked) [Compound 140], the “Max Plateau” value (Table 2, 72 hours) is 266.63.
In the case of `COC(=O)C1=C(C2CC2)Nc2sc(C(=O)c3ccc(Cl)c(Cl)c3)c(N)c2C1c1ccccc1F` (centres unmarked) [Compound 144], for the setting “Table 2, 72 hours”, the “Max Plateau” value is reported as 187.17.
Take `COCC1=C(C(=O)OC)C(c2ccccc2)c2c(sc(C(=O)c3ccc(Cl)c(Cl)c3)c2N)N1` (centres unmarked) [Compound 120]: the “Max Plateau” value (Table 2, 72 hours) came to 140.79.
Turning to `CCCC(=O)C1=C(CCC)Nc2sc(C(=O)c3ccc(Cl)c(Cl)c3)c(N)c2C1c1ccccc1F` (centres unmarked) [Compound 87], under “Table 1, 72 hours”, the “Max Plateau” value worked out at 187.66 ± 12.24.
With `CCOC(=O)C1=C(CC)Nc2sc(C(=O)c3ccc(F)c(CC(=O)OC)c3)c(N)c2C1c1ccccc1` (racemic) [Compound 194], the “Max Plateau” value (Table 2, 72 hours) came to 188.67.
`CC(=O)C1=C(C)Nc2sc(C(=O)c3ccc(Cl)c(Cl)c3)c(N)c2C1c1cc(Cl)cc(Cl)c1` (centres unmarked) [Compound 33]: the “Max Plateau” value (Table 1, 72 hours) came to 143.15 ± 21.22.
As for `CCC(=O)C1=C(CC)Nc2sc(C(=O)c3ccccc3)c(N)c2C1c1c(F)cccc1F` (centres unmarked) [Compound 69], the “Max Plateau” value (Table 1, 72 hours) is reported as 221.36 ± 15.94.
As to `CCC(=O)C1=C(CC)Nc2sc(C(=O)c3ccccc3)c(N)c2C1c1cccnc1` (centres unmarked) [Compound 68], the “Max Plateau” value (Table 1, 72 hours) amounted to 175.88 ± 14.54.

One may read the EC50 as the concentration giving half of the maximal effect. A low value points to an effect from little substance.
